Source: patent publication US9018197B2, “Tetradecahydro-1H-cyclopenta[a]phenanthrene compounds, compositions, and related methods of use” (Suzhou Neupharma Co. Ltd., priority 2010, dated 2015)

Key:
[1] = system: Bcap-37 cells; experiment: Inhibition of cell growth in tumor cells, MTT assay, Bcap-37 cells; assay type: cell-based; settings: Homo sapiens, Bcap37, 72 h compound exposure
Description: (§1) Inhibition of cell growth by compounds was measured using MTT assay (Mosmann, T., Journal of Immunological Methods, 1983, 65, 55-63). Tumor cell lines were purchased from ATCC (American Type Culture Collection, Manassas, Va.). All cell lines were maintained in RPMI 1640 (Hyclone) supplemented with 10% fetal bovine serum (FBS, Hyclone), glutamine (2 mM, Hyclone), and antibiotics (penicillin 100 U/mL and streptomycin 50 μg/mL) at 37° C. in a humidified atmosphere of 5% CO2 in air. Taxol (positive control, Sigma) and compounds were dissolved in DMSO (Sigma), and the final concentration of DMSO in the medium was 1%. Tumor cells were plated in 96-well plates at densities from 4000 cells/well of a 96-well plate and allowed to adhere/grow for 24 h. They were then treated with various concentrations of drug for 72 h. 3-(4,5-Dimethylthiazol-2-yl)-2,5-diphenyltetrazolium bromide (MTT, Sigma) was used to determine the number of viable cells at the time of compound addition and the number of cells remaining after 72 h compound exposure. The number of cells remaining after 72 h was compared to the number of viable cells at the time of compound addition by measuring the absorbance at 570 nm, allowing for the calculation of growth inhibition.
(§2) All concentrations of compounds were tested in triplicate and controls were averaged over 4 wells. IC50 was calculated by plotting the concentration of compound vs the percentage of inhibition in treated wells using GraphPad Prism 5.

[2] = system: A549 cells; experiment: Inhibition of cell growth in tumor cells, MTT assay, A549 cells; assay type: cell-based; settings: Homo sapiens, 72 h compound exposure
Description: as §1, §2

SMILES	IC50 [1]	IC50 [2]
C[C@]12CC[C@H](OC(=O)NCCN3CCCC3)C[C@H]1CC[C@H]1C3=CC[C@H](c4ccc(=O)oc4)[C@@]3(C)CC[C@@H]12 [(3S,5R,8R,9S,10S,13R,17S)-10,13-dimethyl-17-(2-oxo-2H-pyran-5-yl)-2,3,4,5,6,7,8,9,10,11,12,13,16,17-tetradecahydro-1H-cyclopenta[a]phenanthren-3-yl 2-(pyrrolidin-1-yl)ethylcarbamate]	0.168 µM	0.217 µM
C[C@]12CC[C@H](OC(=O)NCCN3CCOCC3)C[C@H]1CC[C@H]1C3=CC[C@H](c4ccc(=O)oc4)[C@@]3(C)CC[C@@H]12 [(3S,5R,8R,9S,10S,13R,17S)-10,13-dimethyl-17-(2-oxo-2H-pyran-5-yl)-2,3,4,5,6,7,8,9,10,11,12,13,16,17-tetradecahydro-1H-cyclopenta[a]phenanthren-3-yl 2-morpholinoethylcarbamate]	0.192 µM	0.0548 µM
C[C@]12CC[C@H](OC(=O)N3CCNCC3)C[C@H]1CC[C@H]1C3=CC[C@H](c4ccc(=O)oc4)[C@@]3(C)CC[C@@H]12 [(3S,5R,8R,9S,10S,13R,17S)-10,13-dimethyl-17-(2-oxo-2H-pyran-5-yl)-2,3,4,5,6,7,8,9,10,11,12,13,16,17-tetradecahydro-1H-cyclopenta[a]phenanthren-3-ylpiperazine-1-carboxylate]	0.137 µM	0.0902 µM
CC(C)[C@@H](N)C(=O)O[C@H]1CC[C@@]2(C)[C@H](CC[C@H]3C4=CC[C@H](c5ccc(=O)oc5)[C@@]4(C)CC[C@@H]32)C1 [(R)-((3S,5R,8R,9S,10S,13R,17S)-10,13-dimethyl-17-(2-oxo-2H-pyran-5-yl)-2,3,4,5,6,7,8,9,10,11,12,13,16,17-tetradecahydro-1H-cyclopenta[a]phenanthren-3-yl) 2-amino-3-methylbutanoate]	0.155 µM	0.171 µM
CC(C)C[C@@H](N)C(=O)O[C@H]1CC[C@@]2(C)[C@H](CC[C@H]3C4=CC[C@H](c5ccc(=O)oc5)[C@@]4(C)CC[C@@H]32)C1 [(R)-((3S,5R,8R,9S,10S,13R,17S)-10,13-dimethyl-17-(2-oxo-2H-pyran-5-yl)-2,3,4,5,6,7,8,9,10,11,12,13,16,17-tetradecahydro-1H-cyclopenta[a]phenanthren-3-yl) 2-amino-4-methylpentanoate]	0.376 µM	
C[C@@H](N)C(=O)O[C@H]1CC[C@@]2(C)[C@H](CC[C@H]3C4=CC[C@H](c5ccc(=O)oc5)[C@@]4(C)CC[C@@H]32)C1 [(R)-((3S,5R,8R,9S,10S,13R,17S)-10,13-dimethyl-17-(2-oxo-2H-pyran-5-yl)-2,3,4,5,6,7,8,9,10,11,12,13,16,17-tetradecahydro-1H-cyclopenta[a]phenanthren-3-yl) 2-aminopropanoate]	0.161 µM	0.106 µM
CC(C)[C@H](N)C(=O)O[C@H]1CC[C@@]2(C)[C@H](CC[C@H]3C4=CC[C@H](c5ccc(=O)oc5)[C@@]4(C)CC[C@@H]32)C1 [(S)-((3S,5R,8R,9S,10S,13R,17S)-10,13-dimethyl-17-(2-oxo-2H-pyran-5-yl)-2,3,4,5,6,7,8,9,10,11,12,13,16,17-tetradecahydro-1H-cyclopenta[a]phenanthren-3-yl) 2-amino-3-methylbutanoate]	0.444 µM	
CC(C)C[C@H](N)C(=O)O[C@H]1CC[C@@]2(C)[C@H](CC[C@H]3C4=CC[C@H](c5ccc(=O)oc5)[C@@]4(C)CC[C@@H]32)C1 [(S)-((3S,5R,8R,9S,10S,13R,17S)-10,13-dimethyl-17-(2-oxo-2H-pyran-5-yl)-2,3,4,5,6,7,8,9,10,11,12,13,16,17-tetradecahydro-1H-cyclopenta[a]phenanthren-3-yl) 2-amino-4-methylpentanoate]		0.229 µM
C[C@H](N)C(=O)O[C@H]1CC[C@@]2(C)[C@H](CC[C@H]3C4=CC[C@H](c5ccc(=O)oc5)[C@@]4(C)CC[C@@H]32)C1 [(S)-((3S,5R,8R,9S,10S,13R,17S)-10,13-dimethyl-17-(2-oxo-2H-pyran-5-yl)-2,3,4,5,6,7,8,9,10,11,12,13,16,17-tetradecahydro-1H-cyclopenta[a]phenanthren-3-yl) 2-aminopropanoate]		0.113 µM
